Data on one compound can be found in patent US6296873A, “Zero-order sustained release delivery system for carbamazephine derivatives” (Yissum Research Development Company of the Hebrew …, priority 2000, dated 2001).

Each structure is given as a SMILES string. In brackets after ≈: the same amount, converted by molar mass. Where two headings read alike, the source gives them in different places.

One may read the solubility as how much of the substance goes into solution per volume.

The conditions of series [1]: anhydrous carbamazepine; cited from earlier work.
The nature of series [2]: Crystal morphology and structure of carbamazepine in the gel layer of hydrated tablets (DSC, X-ray, SEM). The following applies: for SEM: form of carbamazepine in the gel layer: 50% Methocel K4M. The series is classed as physicochemical. How it is done: Gel layers of the tablets were analyzed. Tablets were hydrated using the USP Basket Method I under the same conditions described in the dissolution studies. At various time intervals the tablets were removed from the baskets, the gel layer was scratched and dried at room temperature for at least 24 hours. The gel layer was analyzed by DSC, X-ray powder diffraction and scanning electron microscopy (SEM). Used analytical methods are described in Example 4.
Tablets containing 50% carbamazepine and 50% Methocel K4M were prepared and hydrated in medium containing 1% SDS in water, using tablet dissolution tester at the same conditions used for measurements of the release rate of the drug.
At various time intervals the tablets were removed and the gel layer was peeled, dried at room temperature and analyzed by DSC, X-ray and SEM. For comparison, a suspension containing carbamazepine in 1% SDS water solution was prepared and the crystals obtained were analyzed by DSC, X-ray and SEM.
(§1) The thermal analysis of the samples was performed using a Differential Scanning Calorimeter (DSC, Mettler TA4000 with measuring cell DSC 30E, Switzerland). Samples were measured into aluminum pans. Lids were crimped and holes were made in lids in order to allow dehydration of samples. The thermal behavior of the samples was studied under nitrogen purge at heating rates of 10° C. min^-1 over a temperature range of 0° C. to 250° C. When the glass transition temperature of HPMC was examined the heating rate was 0.5° C. min^-1.
(§2) X-ray powder diffraction of the samples was recorded by Philips automated diffractometer using Cu-K α radiation (40 kV, 35 mA) at a scanning rate of 0.5° per 20 min^-1.
Samples of hydrated tablets were sliced across the gel layer. The samples were washed and then treated with increasing concentration of ethanol, 5 minutes at each concentration, for dehydration. […] Scanning electron photomicrographs were recorded using a Philips 505 SEM, applying voltage of […]. Samples of powders were coated and analyzed under the same conditions described for the hydrated tablets.

A short description of series [3]: Crystal morphology and structure of carbamazepine from HPMC solutions (SEM, X-ray diffraction). In kind it is physicochemical. The following applies: for X-ray diffraction: crystal form of carbamazepine: 1 day. The protocol:
(§3) Analysis of carbamazepine in HPMC solutions and in dry mixtures of HPMC was performed. Suspension of carbamazepine (5% w/v) containing 1% SDS aqueous solution with Methocel K4M at different concentrations, namely 0.5, 1, 2, 5 and 10 mg,/ml were shaken for 1-7 days at 37° C. with stirring (50 rpm). Samples from the sediment were taken, at various time intervals, dried at room temperature for 2 days and analyzed by DSC, X-ray powder diffraction and SEM.
as §2
Samples of hydrated tablets were sliced across the gel layer. The samples were washed and then treated with increasing concentration of ethanol, 5 minutes at each concentration, for dehydration. In order to complete the dehydration the samples were transferred in solution of freon 113:ethanol with increasing concentrations of freon (25, 50, 75, 100%). The samples with 100% freon were incubated in the hood for 0.5 hour. The cross-sectioned tablets were mounted on stubs and coated with a polaron sputter coater, Model E5100. The film thickness obtained was approximately 75 Å. Scanning electron photomicrographs were recorded using a Philips 505 SEM, applying voltage of […]. Samples of powders were coated and analyzed under the same conditions described for the hydrated tablets.

Series [4] is described as follows: Solubility of carbamazepine in medium. The series is classed as physicochemical. As to conditions: read-out: Drug solubility. The text has this: Results are seen in FIG. 12.
Series [5] can be described thus: Degree of conversion of anhydrous carbamazepine to carbamazepine dihydrate in suspension (DSC). The series is classed as physicochemical. How it is done:
Suspensions of carbamazepine (5% w/v) containing water or 1% SDS aqueous solution were shaken at 37° C. with stirring (50 rpm). Samples from the sediment were taken after 1 day, dried at room temperature for 2 days, and analyzed by differential scanning calorimetry, X-ray powder diffraction and scanning electron microscopy (SEM). Carbamazepine anhydrous powder was analyzed using the same methods.
as §3
The degree of conversion of anhydrous carbamazepine to the dihydrate form, measured by DSC, was calculated according to the ratio obtained from the dehydration enthalpies of carbamazepine suspended in 1% SDS aqueous Methocel solution and 1% SDS aqueous solution without Methocel. Dry mixtures containing different ratios of HPMC (Methocel K4M) and carbamazepine were also analyzed by DSC in order to investigate the influence of HPMC on the polymorphic transformation of carbamazepine.
as §1

For series [6] the following is noted: after 1 hour, in the presence of water; cited from earlier work.

On to `NC(=O)N1c2ccccc2C=Cc2ccccc21` [carbamazepine], for which the Solubility in water result in series [1] is listed as “practically insoluble in water”. Further, the “SEM: form of carbamazepine in the gel layer” value is reported as “transformed to an amorphous form” in series [2] (6 hours of hydration) and “showed the same behavior” in series [2] (20 hours hydration). Besides, the “Transformation of carbamazepine to the dihydrate form in the gel layer” value in series [2] (hydrated tablets containing 50% polymer, 6 and 20 hours) is given as “inhibited”. Besides, the “X-ray diffraction: crystal form of carbamazepine” value in series [3] (1 mg/ml Methocel K4M solution) was “mixture of carbamazepine and carbamazepine dihydrate crystals”; in series [3] (10 mg/ml Methocel K4M solution), “solely the anhydrous form”. In series [3] (1, 5 or 10 mg/ml HPMC, 1 and 7 days), the “SEM: appearance of carbamazepine crystals from HPMC solutions” value is recorded as “appear to be amorphous”. In addition, the solubility worked out at 1470 µg/mL (≈ 6.21 mM) in series [4] (0.5% sds in water) and 3300 µg/mL (≈ 14 mM) in series [4] (1% sds in water). For the same compound, the “Degree of conversion of carbamazepine to carbamazepine dihydrate” value was determined as 0% in series [5] (5 mg/ml Methocel K4M, time 1 day); 0.97% in series [5] (5 mg/ml Methocel K4M, time 2 days); 8.8% in series [5] (5 mg/ml Methocel K4M, time 3 days); 21.5% in series [5] (5 mg/ml Methocel K4M, time 4 days); 100% in series [5] (5 mg/ml Methocel K4M, time 7 days); 100% in series [5] (Methocel K4M 0 mg/ml, 24 hours, 1% SDS, 37° C.). Further, the “Degree of conversion of carbamazepine to carbamazepine dihydrate” value in series [5] (Methocel K4M 0.5 mg/ml, 24 hours, 1% SDS, 37° C.) was 77.0%; in series [5] (Methocel K4M 1 mg/ml, 24 hours, 1% SDS, 37° C.), 23.1%; in series [5] (Methocel K4M 2 mg/ml, 24 hours, 1% SDS, 37° C.), 0%; in series [5] (Methocel K4M 5 mg/ml, 24 hours, 1% SDS, 37° C.), 0%; in series [5] (Methocel K4M 10 mg/ml, 24 hours, 1% SDS, 37° C.), 0%. For the same compound, in series [5] (after 7 days, all examined Methocel K4M concentrations), the “Transformation of carbamazepine to dihydrate” value was “transformed completely to dihydrate”. Further, the “Conversion of anhydrous carbamazepine to dihydrate (DSC thermograms)” value in series [5] (suspended in water, without HPMC) was “completely converted to dihydrate”. Besides, the “Conversion to carbamazepine dihydrate complete” value in series [6] was 95%.
